Data published in publication PMC6152322, “Synthesis and Evaluation of New Oxadiazole, Thiadiazole, and Triazole Derivatives as Potential Anticancer Agents Targeting MMP-9” (Molecules : A Journal of Synthetic Chemistry and Natural …, 2017).
Where two headings read alike, the source gives them in different places.

How the values were obtained:
C6 rat glioma cell line = experiment: XTT cytotoxicity assay on C6 cells; format: cell-based; conditions: 24 h incubation, Mean ± standard deviation, read-out: IC50 Values for Cell Lines C6
Excerpt: (§1) NIH/3T3 Mouse embryonic fibroblast (ATCC® CRL-1658™, American Type Culture Collection (ATCC), Manassas, VA, USA), A549 human lung adenocarcinoma (ATCC® CCL-185™, American Type Culture Collection (ATCC), Manassas, VA, USA) and C6 rat glioma (ATCC® CCL-107™, American Type Culture Collection (ATCC), Manassas, VA, USA) cell lines were used for cytotoxicity tests. NIH/3T3 cell line was used to investigate the selectivity of the compounds, whereas other cell lines were used to determine anticancer activity. All cell lines were incubated according to the instructions of the supplier at 37 °C in a humidified atmosphere of 95% air and 5% CO2. NIH/3T3, A549 and C6 cells were seeded at 1 × 10^4 cells into each well of 96-well plate. After 24 h of incubating period, the culture mediums were removed and compound was added to culture medium at 500–3.9 μg/mL doses with a dilution factor of 2 (3.9, 7.8, 15.6, 31.2, 62.5, 125, 250, 500 μg/mL). After 24 h of incubation, XTT (2,3-bis(2-methoxy-4-nitro-5-sulfophenyl)-2H-tetrazolium-5-carboxanilide) assay was performed using the In Cytotox-XTT 1 Parameter Cytotoxicity Kit (Xenometrix, Allschwil, Switzerland) as previously described. […] All experiments were done in quadruplicates at three different time points, and the results were given as Mean ± standard deviation. Cisplatin was used as a positive control. The stock solutions of the compounds were prepared in dimethyl sulfoxide (DMSO) and further dilutions were made with fresh culture medium. The final DMSO concentration was under 0.1%.
(§2) Inhibition%=100−( corrected mean OD sample/corrected mean OD solvent controls ×100)

[1] = tested on: A549 human lung adenocarcinoma cell line; experiment: XTT cytotoxicity assay on A549 cells; format: cell-based; conditions: for IC50: Mean ± standard deviation, read-out: IC50 Values for Cell Lines A549
Excerpt: as §1, §2

MMP-9 = target: T1, MMP-9 (Homo sapiens, UniProt P14780); experiment: MMP-9 colorimetric inhibition assay; format: biochemical; conditions: for inhibition at 1.3 µM: read-out: Inhibition % (Mean ± SD) MMP-9
T1 construct: purchased Enzo Life Sciences Inc
T1 sequence (P14780 94-707): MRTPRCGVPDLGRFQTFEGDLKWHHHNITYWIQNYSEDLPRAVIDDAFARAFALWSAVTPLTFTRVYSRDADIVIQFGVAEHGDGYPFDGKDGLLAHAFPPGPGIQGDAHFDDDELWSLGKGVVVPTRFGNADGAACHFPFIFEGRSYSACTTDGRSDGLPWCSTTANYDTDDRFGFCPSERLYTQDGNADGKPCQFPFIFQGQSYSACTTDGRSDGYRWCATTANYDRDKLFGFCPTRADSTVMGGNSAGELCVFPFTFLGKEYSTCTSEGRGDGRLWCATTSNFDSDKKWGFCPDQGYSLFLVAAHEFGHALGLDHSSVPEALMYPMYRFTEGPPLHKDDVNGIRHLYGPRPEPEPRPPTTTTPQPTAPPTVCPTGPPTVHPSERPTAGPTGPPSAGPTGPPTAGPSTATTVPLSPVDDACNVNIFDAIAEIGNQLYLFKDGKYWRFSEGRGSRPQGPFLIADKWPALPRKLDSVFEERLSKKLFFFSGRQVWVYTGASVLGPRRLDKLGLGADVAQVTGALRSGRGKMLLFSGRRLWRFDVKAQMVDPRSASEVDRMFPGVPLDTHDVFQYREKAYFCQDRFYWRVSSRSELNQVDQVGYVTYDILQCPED
Excerpt: (§3) MMP-1, -2, -8, -9, -13 colorimetric kits were purchased from Enzo Life Sciences Inc. (Farmingdale, New York, NY, USA). The MMP Colorimetric Drug Discovery Kits are complete assay system designed to screen MMP inhibitors using a thiopeptide as a chromogenic substrate (Ac-PLG-[2-mercapto-4-methyl-pentanoyl]-LG-OC2H5). The MMP cleavage site peptide bond is replaced by a thioester bond in the thiopeptide. Hydrolysis of this bond by a MMP produces a sulfhydryl group, which reacts with DTNB [5,5′-dithiobis(2-nitrobenzoic acid), Ellman’s reagent] to form 2-nitro-5-thiobenzoic acid, which can be detected by its absorbance at 412 nm. The assays were conducted in triplicate. The UV absorbance was read at 412 nm using a microplate reader (BioTek, PowerWave, Gen5 software, Winooski, VT, USA) at room temperature. NNGH was used as a control inhibitor. Data was expressed as Mean ± SD [63].
(§4) The inhibitor% remaining activity of MMPs was calculated using the following equation: Inhibitor% activity remaining = (V inhibitor/V control) × 100
(§5) The inhibition (percent) of MMPs was calculated using the following equation:I (%) = 100 − Inhibitor% activity remaining

MMP-8 = target: T2, MMP-8 (Homo sapiens, UniProt P22894); experiment: MMP-8 colorimetric inhibition assay; format: biochemical; conditions: for Inhibition % (Mean ± SD) MMP-8: 1.3 μM
T2 construct: purchased Enzo Life Sciences Inc
T2 sequence (P22894 101-467): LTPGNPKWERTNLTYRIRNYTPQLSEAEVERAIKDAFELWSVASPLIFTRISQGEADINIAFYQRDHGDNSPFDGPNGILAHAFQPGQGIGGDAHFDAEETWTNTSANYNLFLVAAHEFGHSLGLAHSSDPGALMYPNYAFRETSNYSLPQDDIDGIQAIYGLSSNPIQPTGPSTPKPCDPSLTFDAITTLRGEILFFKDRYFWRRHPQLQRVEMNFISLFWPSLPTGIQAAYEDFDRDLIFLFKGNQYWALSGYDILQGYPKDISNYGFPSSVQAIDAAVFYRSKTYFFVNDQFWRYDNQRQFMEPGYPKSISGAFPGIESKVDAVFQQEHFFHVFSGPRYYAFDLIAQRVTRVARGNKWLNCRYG
Excerpt: as §3, §4, §5

[2] = tested on: NIH/3T3 mouse embryonic fibroblast cell line; experiment: XTT cytotoxicity assay on NIH/3T3 cells; format: cell-based; conditions: NIH3T3, 24 h incubation, Mean ± standard deviation, read-out: IC50 Values for Cell Lines NIH/3T3
Excerpt: as §1, §2

MMP-1 = target: T3, MMP-1 (Homo sapiens, UniProt P03956); experiment: MMP-1 colorimetric inhibition assay; format: biochemical; conditions: 1.3 μM
T3 construct: purchased Enzo Life Sciences Inc
T3 sequence (P03956 100-469): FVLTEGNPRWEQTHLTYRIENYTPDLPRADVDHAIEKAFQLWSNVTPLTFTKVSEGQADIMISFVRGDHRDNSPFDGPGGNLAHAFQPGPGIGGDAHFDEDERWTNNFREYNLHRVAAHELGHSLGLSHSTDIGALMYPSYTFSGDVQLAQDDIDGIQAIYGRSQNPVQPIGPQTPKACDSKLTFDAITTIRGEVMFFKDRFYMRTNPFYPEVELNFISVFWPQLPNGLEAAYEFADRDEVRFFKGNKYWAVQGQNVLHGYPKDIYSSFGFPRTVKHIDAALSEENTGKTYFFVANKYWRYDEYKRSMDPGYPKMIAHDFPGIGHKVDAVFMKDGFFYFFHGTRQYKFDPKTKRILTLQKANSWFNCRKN
Excerpt: as §3, §4, §5

MMP-13 = target: T4, MMP-13 (Homo sapiens, UniProt P45452); experiment: MMP-13 colorimetric inhibition assay; format: biochemical; conditions: 1.3 μM
T4 construct: purchased Enzo Life Sciences Inc
Excerpt: as §3, §4, §5

MMP-2 = target: T5, MMP-2 (Homo sapiens, UniProt P08253); experiment: MMP-2 colorimetric inhibition assay; format: biochemical; conditions: 1.3 μM
T5 construct: purchased Enzo Life Sciences Inc
T5 sequence (P08253 110-660): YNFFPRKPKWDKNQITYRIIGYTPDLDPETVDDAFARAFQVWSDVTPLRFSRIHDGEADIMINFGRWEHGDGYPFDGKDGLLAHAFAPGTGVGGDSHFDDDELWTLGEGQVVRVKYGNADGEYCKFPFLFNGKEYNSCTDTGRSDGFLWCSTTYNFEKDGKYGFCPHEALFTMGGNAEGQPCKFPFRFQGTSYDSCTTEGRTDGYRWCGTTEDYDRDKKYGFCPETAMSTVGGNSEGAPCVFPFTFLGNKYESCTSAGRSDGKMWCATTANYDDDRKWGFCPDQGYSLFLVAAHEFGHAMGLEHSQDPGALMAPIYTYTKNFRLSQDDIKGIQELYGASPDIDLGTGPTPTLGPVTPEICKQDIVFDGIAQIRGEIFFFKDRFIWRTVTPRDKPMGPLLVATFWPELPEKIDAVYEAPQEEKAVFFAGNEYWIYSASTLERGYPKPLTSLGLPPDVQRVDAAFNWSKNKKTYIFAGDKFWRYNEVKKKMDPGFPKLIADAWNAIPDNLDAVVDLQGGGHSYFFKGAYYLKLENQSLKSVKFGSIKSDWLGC
Excerpt: as §3, §4, §5

[3] = Homo sapiens, A549, 24 h incubation

| SMILES | melting point [°C] | IC50 (C6 rat glioma cell line; Rattus norvegicus, Glioma cell) [µM] | IC50 [1, 3] [µM] | IC50 [2] [µM] | also measured |
| --- | --- | --- | --- | --- | --- |
| N.N.[Cl][Pt][Cl] [Cisplatin, reference compound] |  |  |  |  | IC50 (C6 rat glioma cell line): 103 ± 26 µM; IC50 ([1]; 24 h incubation): 140 ± 30 µM |
| Nn1c(COc2ccccc2)nnc1SCC(=O)N1CCOCC1 [Compound 2, 2-{[4-Amino-5-(phenoxymethyl)-4H-1,2,4-triazol-3-yl]thio}-1-morpholinoethan-1-one] | 213 | > 1430 | > 1430 | 1410 ± 94 |  |
| COc1ccc(OCc2nnc(SCC(=O)N3CCOCC3)o2)cc1 [Compound 3, 2-{[5-((4-Methoxyphenoxy)methyl)-1,3,4-oxadiazol-2-yl]thio}-1-morpholinoethan-1-one] | 119 | 507 ± 49 | 1370 ± 58 | 1370 ± 74 |  |
| O=C(CSc1nnc(COc2ccc3c(c2)CCCC3)o1)N1CCOCC1 [Compound 4, 2-{[5-(((5,6,7,8-Tetrahydronaphthalen-2-yl)oxy)methyl)-1,3,4-oxadiazol-2-yl]thio}-1-morpholinoethan-1-one] |  | > 1280 | > 1280 | 1280 ± 90 |  |
| COc1ccc(OCc2nnc(SCC(=O)NCc3ccc4c(c3)OCO4)o2)cc1 [Compound 7, N-(1,3-Benzodioxol-5-ylmethyl)-2-{[5-((4-methoxyphenoxy)methyl)-1,3,4-oxadiazol-2-yl]thio}acetamide] | 127 | > 1170 | > 1170 | 100 ± 11 | cytotoxic activity against A549 cell line (in words) ([1]; 24 h incubation): did not show any cytotoxic activity |
| O=C(CSc1nnc(-c2ccccc2)o1)NCc1ccc2c(c1)OCO2 [Compound 9, N-(1,3-Benzodioxol-5-ylmethyl)-2-[(5-phenyl-1,3,4-oxadiazol-2-yl)thio]acetamide] | 136 | 157 ± 16 | 349 ± 46 | 888 ± 29 | inhibition at 1.3 µM (MMP-9): 30.5 ± 3.27%; Inhibition % (Mean ± SD) MMP-8 (MMP-8): no inhibitory activity |
| COc1ccc(S(=O)(=O)N(CC(=O)NO)CC(C)C)cc1 [NNGH, N-isobutyl-N-(4-methoxyphenylsulfonyl)glycyl hydroxamic acid] |  |  |  |  | Inhibition % (Mean ± SD) MMP-9 (MMP-9; 1.3 μM): 88.44 ± 3.35%; Inhibition % (Mean ± SD) MMP-8 (MMP-8): 100%; Inhibition % (Mean ± SD) MMP-1 (MMP-1): 87.79 ± 3.49%; Inhibition % (Mean ± SD) MMP-13 (MMP-13): 93.74 ± 3.06%; Inhibition % (Mean ± SD) MMP-2 (MMP-2): 100% |

Now from value to compound, other results behind:

| melting point [°C] | SMILES | IC50 (C6 rat glioma cell line; Rattus norvegicus, Glioma cell) [µM] | IC50 [1, 3] [µM] | IC50 [2] [µM] | also measured |
| --- | --- | --- | --- | --- | --- |
| 154 | O=C(CSc1nnc(Nc2ccc(Cl)cc2Cl)s1)N1CCOCC1 [Compound 1, 2-{[5-((2,4-Dichlorophenyl)amino)-1,3,4-thiadiazol-2-yl]thio}-1-morpholinoethan-1-one] | 128 ± 27 | > 1230 | 308 ± 37 | inhibition at 1.3 µM (MMP-9): 24.8 ± 0.86%; inhibition at 1.3 µM (MMP-8; read-out: Inhibition % (Mean ± SD) MMP-8): 15 ± 1.4% |
| 187 | O=C(CSc1nnc(Nc2ccc(Cl)cc2Cl)s1)NCc1ccc2c(c1)OCO2 [Compound 5, N-(1,3-Benzodioxol-5-ylmethyl)-2-{[5-((2,4-dichlorophenyl)amino)-1,3,4-thiadiazol-2-yl]thio}acetamide] | > 1070 | > 1070 | > 1070 | cytotoxic activity against A549 cell line (in words) ([1]; 24 h incubation): did not show any cytotoxic activity |
| 148 | Nn1c(COc2ccccc2)nnc1SCC(=O)NCc1ccc2c(c1)OCO2 [Compound 6, 2-{[4-Amino-5-(phenoxymethyl)-4H-1,2,4-triazol-3-yl]thio}-N-(1,3-benzodioxol-5-ylmethyl)acetamide] | > 1210 | > 1210 | > 1210 | cytotoxic activity against A549 cell line (in words) ([1]; 24 h incubation): did not show any cytotoxic activity |
| 96 | O=C(CSc1nnc(COc2ccc3c(c2)CCCC3)o1)NCc1ccc2c(c1)OCO2 [Compound 8, N-(1,3-Benzodioxol-5-ylmethyl)-2-{[5-(((5,6,7,8-tetrahydronaphthalen-2-yl)oxy)methyl)-1,3,4-oxadiazol-2-yl]thio}acetamide] | 137 ± 15 | 125 ± 20 | > 1100 | inhibition at 1.3 µM (MMP-9): 25.8 ± 2.16%; Inhibition % (Mean ± SD) MMP-8 (MMP-8): no inhibitory activity |
